# Data: ChEMBL document CHEMBL1287709, “Trifluoromethylphenyl as P2 for ketoamide-based cathepsin S inhibitors” (Bioorg Med Chem Lett, 2010)
# Assays:
# Cathepsin S [1] = target: T1, Cathepsin S (Homo sapiens, UniProt P25774); assay: Inhibition of human cathepsin S by fluorescence assay
# Cathepsin K = target: T2, Cathepsin K (Homo sapiens, UniProt P43235); assay: Inhibition of human cathepsin K by fluorescence assay
# T2 sequence (P43235 whole entry): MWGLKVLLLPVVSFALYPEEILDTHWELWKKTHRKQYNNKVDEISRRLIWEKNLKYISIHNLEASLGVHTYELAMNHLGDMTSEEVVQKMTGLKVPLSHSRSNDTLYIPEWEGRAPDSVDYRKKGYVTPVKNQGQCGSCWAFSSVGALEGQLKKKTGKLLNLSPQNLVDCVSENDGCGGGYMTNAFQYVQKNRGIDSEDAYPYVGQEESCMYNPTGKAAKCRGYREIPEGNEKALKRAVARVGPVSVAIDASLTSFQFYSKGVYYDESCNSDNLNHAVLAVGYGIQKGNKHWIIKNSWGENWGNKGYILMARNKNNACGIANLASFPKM
# Cathepsin B = Cathepsin B (Homo sapiens, UniProt P07858); assay: Inhibition of human cathepsin B by fluorescence assay
# Cathepsin L2 = target: T3, Cathepsin L2 (Homo sapiens, UniProt O60911); assay: Inhibition of human cathepsin V by fluorescence assay
# T3 sequence (O60911 whole entry): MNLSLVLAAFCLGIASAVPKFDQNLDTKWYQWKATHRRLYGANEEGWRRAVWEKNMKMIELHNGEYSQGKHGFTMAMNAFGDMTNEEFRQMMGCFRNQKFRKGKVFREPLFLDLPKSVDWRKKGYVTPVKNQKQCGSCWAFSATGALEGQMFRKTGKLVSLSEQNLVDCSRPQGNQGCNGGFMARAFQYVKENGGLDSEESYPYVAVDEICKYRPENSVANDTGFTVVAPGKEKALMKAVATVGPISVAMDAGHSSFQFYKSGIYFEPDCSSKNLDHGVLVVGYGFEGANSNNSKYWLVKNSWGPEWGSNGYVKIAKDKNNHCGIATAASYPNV
# Procathepsin L = Procathepsin L (Homo sapiens, UniProt P07711); assay: Inhibition of human cathepsin L by fluorescence assay
# Cathepsin S [2] = target: T1, Cathepsin S; assay: Inhibition of cathepsin S in human JY cells assessed as Lip10 accumulation by Western blotting; type: cell-based
# Chain of Procathepsin L (P07711 whole entry): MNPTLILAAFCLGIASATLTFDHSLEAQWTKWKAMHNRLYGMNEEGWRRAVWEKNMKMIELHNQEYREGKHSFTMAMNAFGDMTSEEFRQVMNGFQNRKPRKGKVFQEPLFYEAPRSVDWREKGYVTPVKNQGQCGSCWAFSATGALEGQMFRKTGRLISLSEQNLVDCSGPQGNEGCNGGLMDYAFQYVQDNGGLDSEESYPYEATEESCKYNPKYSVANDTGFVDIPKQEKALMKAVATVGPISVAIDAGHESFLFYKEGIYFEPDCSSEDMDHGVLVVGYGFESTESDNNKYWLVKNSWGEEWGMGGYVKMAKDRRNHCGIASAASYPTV
# T1 sequence (P25774 whole entry): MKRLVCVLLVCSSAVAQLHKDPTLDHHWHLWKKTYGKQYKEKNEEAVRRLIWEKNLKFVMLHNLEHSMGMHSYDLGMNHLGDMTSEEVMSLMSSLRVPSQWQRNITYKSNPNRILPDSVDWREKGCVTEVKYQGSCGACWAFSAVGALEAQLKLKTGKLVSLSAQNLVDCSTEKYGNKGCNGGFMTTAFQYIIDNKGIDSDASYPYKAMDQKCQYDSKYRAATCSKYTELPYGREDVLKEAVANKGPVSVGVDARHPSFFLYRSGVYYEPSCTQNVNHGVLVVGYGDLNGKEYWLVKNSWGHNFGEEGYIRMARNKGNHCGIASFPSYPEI
IC50 (Cathepsin S [1]),IC50 (Cathepsin K),IC50 (Cathepsin B),IC50 (Cathepsin L2),IC50 (Procathepsin L),IC50 (Cathepsin S [2]),SMILES
30.9 nM,107 nM,,,,,CC(NC(=O)c1cccc(C(F)(F)F)c1Cl)C(=O)C(N)=O (stereo not drawn)
> 10000 nM,> 10000 nM,,,,,N#CCNC(=O)c1cccc(C(F)(F)F)c1
> 10000 nM,> 10000 nM,,,,,O=CCNC(=O)c1cccc(C(F)(F)F)c1
4.8 nM,37.2 nM,,,,,CC(NC(=O)c1ccc(OCc2ccccn2)c(C(F)(F)F)c1Cl)C(=O)C(N)=O (stereo not drawn)
2.3 nM,11.5 nM,,,,,CC(C)C(NC(=O)c1ccc(OCc2ccccn2)c(C(F)(F)F)c1Cl)C(=O)C(=O)Nc1ccn(C)n1 (stereo not drawn)
1 nM,12.9 nM,15100 nM,36.3 nM,479 nM,,CC(NC(=O)c1ccc(OCc2ccccn2)c(C(F)(F)F)c1Cl)C(=O)C(=O)Nc1ccn(C)n1 (stereo not drawn)
10.5 nM,26.3 nM,,,,,Cc1cc(NC(=O)C(=O)C(C)NC(=O)c2cccc(C(F)(F)F)c2Cl)[nH]n1 (stereo not drawn)
8.5 nM,33.1 nM,,,,,CC(NC(=O)c1cccc(C(F)(F)F)c1Cl)C(=O)C(=O)Nc1ccn(C)n1 (stereo not drawn)
> 10000 nM,> 10000 nM,> 10000 nM,> 10000 nM,> 10000 nM,,CC(NC(=O)c1ccc(OCc2ccccn2)c(C(F)(F)F)c1Cl)C(=O)C(=O)N(C)C (stereo not drawn)
1.1 nM,,,,,1920 nM,CCC(NC(=O)c1ccc(OCc2ccccn2)c(C(F)(F)F)c1Cl)C(=O)C(N)=O (stereo not drawn)
2.9 nM,91.2 nM,,,,,CCOc1ccc(C(=O)NC(C)C(=O)C(=O)Nc2ccn[nH]2)c(Cl)c1C(F)(F)F (stereo not drawn)
1.9 nM,47.9 nM,,,,,CCCCC(NC(=O)c1ccc(OCc2ccccn2)c(C(F)(F)F)c1Cl)C(=O)C(=O)Nc1ccn(C)n1 (stereo not drawn)
11 nM,195 nM,,,,,CCOc1ccc(C(=O)NC(C)C(=O)C(N)=O)c(Cl)c1C(F)(F)F (stereo not drawn)
18 nM,,,,,,CCC(C=O)NC(=O)c1cccc(C(F)(F)F)c1C (stereo not drawn)
1070 nM,,,,,,CCC(C=O)NC(=O)c1cccc(C(F)(F)F)c1 (stereo not drawn)
36 nM,,,,,,CCC(C=O)NC(=O)c1cccc(C(F)(F)F)c1F (stereo not drawn)
110 nM,,,,,,CC(C=O)NC(=O)c1cccc(C(F)(F)F)c1Cl (stereo not drawn)
2.3 nM,11.7 nM,5750 nM,29.5 nM,891 nM,1300 nM,CCC(NC(=O)c1cccc(C(F)(F)F)c1Cl)C(=O)C(=O)Nc1ccn[nH]1 (stereo not drawn)
19.5 nM,46.8 nM,> 10000 nM,1120 nM,> 10000 nM,,CNC(=O)C(=O)C(C)NC(=O)c1ccc(OCc2ccccn2)c(C(F)(F)F)c1Cl (stereo not drawn)
31 nM,32 nM,,,,,CCC(C=O)NC(=O)c1cccc(C(F)(F)F)c1Cl (stereo not drawn)
1.1 nM,20.9 nM,3240 nM,16.6 nM,141 nM,78 nM,CCC(NC(=O)c1ccc(OCc2ccccn2)c(C(F)(F)F)c1Cl)C(=O)C(=O)Nc1ccn(C)n1 (stereo not drawn)
692 nM,,,,,,CCC(C=O)NC(=O)c1cccc(C(F)(F)F)c1OC (stereo not drawn)
14.1 nM,51.3 nM,,,,,CC(NC(=O)c1cccc(C(F)(F)F)c1Cl)C(=O)C(=O)Nc1cc[nH]n1 (stereo not drawn)
